Source: US5607948A, “Dipiperidine derivatives” (Sumitomo Pharmaceuticals Co., Ltd., priority 1993, dated 1997)

Columns and labels:
[1] = tested on: platelet aggregation in platelet-rich plasma (PRP); assay: Platelet aggregation inhibiting effect (ADP-induced aggregation in platelet-rich plasma); format: cell-based, human (healthy man); settings: Homo sapiens, PRP of a healthy person, ADP final concentration 3 μg/ml, 37° C., read-out: IC50 (concentration needed to inhibit the platelet aggregation by 50%)
Method: Blood was collected from the elbow vein of a healthy person, to which was added 3.8% sodium citrate of 1/10 times by volume the blood. This was centrifuged at 1000 rpm (150 g) for 10 minutes, and the resulting supernatant of a platelet-rich plasma (PRP) was collected. 2 μl of a solution of a test compound was added to 200 μl of the PRP and kept at 37° C. for 2 minutes while stirring at 1000 rpm. Then, 22 μl of a platelet aggregation promoter of ADP (adenosine diphosphate, final concentration: 3 μg/ml) was added. The degree of platelet aggregation of the sample was measured by colorimetry, using a hematracer (ex Niko Bioscience Co.). The platelet aggregation inhibiting activity of the test compound was represented by IC50, which indicates the concentration of the compound that was needed to inhibit the platelet aggregation by 50%.

Fibrinogen = biological target: T1, Fibrinogen (Homo sapiens, UniProt P05106+P08514); assay: Bonding of platelets to fibrinogen; format: binding; settings: activated, paraformaldehyde-fixed platelets; plate coated with fibrinogen 5 μg/ml; 37° C. 2 hours; read-out: IC50, inhibition of bonding of platelets to Fibrinogen
T1 construct: endogenous in cells
Method: (§1) 50 ng/ml of PGI2 was added to the PRP sample and subjected to centrifugation at 11000 rpm for 2 minutes, by which the platelets were precipitated. The platelet precipitate was washed with 3.8 mM Hepes buffer (pH 7.4, Tyrode-Hepes buffer) containing 0.14 M NaCl, 2.7 mM KCl, 3.7 mM NaH2 PO4, 0.98 mM MgCl2, 1 mg/ml of glucose, 50 ng/ml of PGI2 and 0.35% BSA. 5 μM epinephrine and 30 μM ADP were added in this order and left at room temperature for 5 minutes, by which the platelets were activated. These were then transferred into a 0.05% paraformaldehyde solution and left at room temperature for 30 minutes, whereby the platelets were fixed in the solution. The thus-fixed platelets were suspended in the Hepes buffer at a concentration of 2×10^8 ml^-1.
(§2) Fibrinogen (ex Kabi Co.), fibronectin (ex Sigma Co.) or collagen (ex Horm Co.) was diluted with 0.1 M NaHCO3 to have a concentration of 5 μg/ml, put into each well of a 96-well microplate (ex Nunc Co.) at 200 μl/well and left at 4° C. overnight. Then, the plate was washed with a phosphate buffered saline (PBS) and blocked with 3% BSA at 37° C. for 1 hour. To the plate were added the platelet suspension (final concentration: 10^8 ml^-1) and a varying concentration of a test compound (total amount: 200 μl/well), and the plate was kept at 37° C. for 2 hours. Then, this was washed with PBS, and 2 μg/ml of an anti-CD9 monoclonal antibody was added and kept at 37° C. for 60 minutes. Next, this was treated with a 1/1000 dilution of an enzyme (HRP)-labeled anti-mouse IgG polyclonal antibody at 37 °C. for 60 minutes, and 100 μl/well of an HRP-coloration substrate (0.1 M phosphate buffer with pH 5, containing 0.4 mg/ml of o-phenylenediamine, 0.01% H2 O2 and 0.1 M citric acid) was added and reacted at room temperature for 15 minutes. By adding 20 μl/well of 4.5 M H2 SO4, the reaction was stopped. Then, the absorbance of the thus-reacted sample at 490 nm was measured. […]

Collagen = assay: Bonding of platelets to collagen; format: binding; settings: activated, paraformaldehyde-fixed platelets; plate coated with collagen 5 μg/ml; 37° C. 2 hours; read-out: IC50, inhibition of bonding of platelets to Collagen
Method: as §1, §2

Fibronectin = assay: Bonding of platelets to fibronectin; format: binding; settings: activated, paraformaldehyde-fixed platelets; plate coated with fibronectin 5 μg/ml; 37° C. 2 hours; read-out: IC50, inhibition of bonding of platelets to Fibronectin
Method: as §1, §2

T1 sequence (P08514 32-887 limits assumed): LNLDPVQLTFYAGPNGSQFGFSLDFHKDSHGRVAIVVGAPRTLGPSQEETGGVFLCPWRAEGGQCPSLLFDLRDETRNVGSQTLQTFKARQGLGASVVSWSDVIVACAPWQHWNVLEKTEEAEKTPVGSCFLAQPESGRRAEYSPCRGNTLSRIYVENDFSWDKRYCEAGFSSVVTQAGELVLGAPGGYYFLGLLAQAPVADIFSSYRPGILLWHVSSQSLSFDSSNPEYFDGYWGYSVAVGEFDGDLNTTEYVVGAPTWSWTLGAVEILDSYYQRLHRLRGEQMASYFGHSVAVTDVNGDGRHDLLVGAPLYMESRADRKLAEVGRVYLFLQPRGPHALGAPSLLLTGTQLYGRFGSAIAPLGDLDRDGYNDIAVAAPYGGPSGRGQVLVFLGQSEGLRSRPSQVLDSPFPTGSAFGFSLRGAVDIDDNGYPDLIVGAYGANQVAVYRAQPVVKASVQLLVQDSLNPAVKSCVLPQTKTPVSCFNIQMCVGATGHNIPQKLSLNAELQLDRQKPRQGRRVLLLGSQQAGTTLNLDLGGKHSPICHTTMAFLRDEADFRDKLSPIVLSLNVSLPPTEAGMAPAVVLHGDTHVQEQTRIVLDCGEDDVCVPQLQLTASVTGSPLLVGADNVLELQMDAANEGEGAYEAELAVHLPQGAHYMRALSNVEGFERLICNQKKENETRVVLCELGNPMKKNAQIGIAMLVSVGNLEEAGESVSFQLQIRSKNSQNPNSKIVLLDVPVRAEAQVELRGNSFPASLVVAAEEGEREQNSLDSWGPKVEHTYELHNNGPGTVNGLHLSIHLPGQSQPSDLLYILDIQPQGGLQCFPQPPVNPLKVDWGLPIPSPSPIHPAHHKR
T1 sequence (P08514 891-1039 limits assumed): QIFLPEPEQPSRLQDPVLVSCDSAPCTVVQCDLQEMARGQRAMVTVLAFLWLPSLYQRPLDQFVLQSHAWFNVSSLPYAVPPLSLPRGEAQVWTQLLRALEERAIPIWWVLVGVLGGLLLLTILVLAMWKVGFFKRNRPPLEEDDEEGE
T1 sequence (P05106 27-788): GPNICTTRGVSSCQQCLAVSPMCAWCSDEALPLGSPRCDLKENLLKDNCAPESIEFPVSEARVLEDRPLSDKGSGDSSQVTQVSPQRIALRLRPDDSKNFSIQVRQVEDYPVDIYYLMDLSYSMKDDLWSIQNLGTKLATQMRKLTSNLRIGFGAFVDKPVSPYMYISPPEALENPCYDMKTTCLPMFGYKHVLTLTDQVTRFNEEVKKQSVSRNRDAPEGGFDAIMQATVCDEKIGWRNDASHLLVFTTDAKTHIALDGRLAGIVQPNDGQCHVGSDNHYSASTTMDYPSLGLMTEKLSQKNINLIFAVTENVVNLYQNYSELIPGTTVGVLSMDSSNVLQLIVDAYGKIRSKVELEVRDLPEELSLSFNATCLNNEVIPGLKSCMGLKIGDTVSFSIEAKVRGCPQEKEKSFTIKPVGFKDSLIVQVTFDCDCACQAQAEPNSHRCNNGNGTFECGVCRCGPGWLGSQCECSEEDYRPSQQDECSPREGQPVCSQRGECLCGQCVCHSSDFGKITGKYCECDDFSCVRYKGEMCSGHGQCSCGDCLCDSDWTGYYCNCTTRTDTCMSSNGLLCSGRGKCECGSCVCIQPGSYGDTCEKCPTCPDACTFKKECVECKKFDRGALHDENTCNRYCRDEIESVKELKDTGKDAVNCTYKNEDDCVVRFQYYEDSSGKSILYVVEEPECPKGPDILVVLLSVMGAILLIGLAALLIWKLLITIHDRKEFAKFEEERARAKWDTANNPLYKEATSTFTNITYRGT

Row | SMILES | IC50 [1] | IC50 (Fibrinogen) | IC50 (Collagen) | IC50 (Fibronectin)
1 | O=C(O)CCC1CCN(C(=O)[C@H](Cc2ccc(O)cc2)NC(=O)COC2CCNCC2)CC1 [Compound (44), 3-(1-(N-(4-piperidyloxyacetyl)-L-tyrosyl)-4-piperidyl)propanoic acid] | 630 nM | – | – | –
2 | CC(C)C[C@H](NC(=O)CCC1CCNCC1)C(=O)N1CCC(OCC(=O)O)CC1 [Compound (26), (1-(N-(3-(4-piperidyl)propanoyl)-L-leucyl)-4-piperidyloxy)acetic acid] | 929 nM | – | – | –
3 | COc1ccc(C[C@H](NC(=O)COC2CCNCC2)C(=O)N2CCC(OCC(=O)O)CC2)cc1 [Compound (15)] | 48 nM | 250 nM | > 100000 nM | 240 nM
4 | CC(C)[C@H](NC(=O)CCC1CCNCC1)C(=O)N1CCC(OCC(=O)O)CC1 [Compound (22), (1-(N-(3-(4-piperidyl)propanoyl)-L-valyl)-4-piperidyloxy)acetic acid] | 1100 nM | – | – | –
5 | COc1ccc(C[C@H](NC(=O)CCC2CCNCC2)C(=O)N2CCC(CCC(=O)O)CC2)cc1 [Compound (35), 3-(1-(N-(3-(4-piperidyl)propanoyl)-O-methyl-L-tyrosyl)-4-piperidyl)propanoic acid] | 712 nM | – | – | –
6 | O=C(O)COC1CCN(C(=O)[C@@H]2CCCN2C(=O)CCC2CCNCC2)CC1 [Compound (25), (1-(N-(3-(4-piperidyl)propanoyl)-L-prolyl)-4-piperidyloxy)acetic acid] | 316 nM | – | – | –
7 | C[C@H](NC(=O)CCC1CCNCC1)C(=O)N1CCC(OCC(=O)O)CC1 [Compound (23), (1-(N-(3-(4-piperidyl)propanoyl)-L-alanyl)-4-piperidyloxy)acetic acid] | 389 nM | – | – | –
8 | CC[C@H](C)[C@H](NC(=O)CCC1CCNCC1)C(=O)N1CCC(OCC(=O)O)CC1 [Compound (27), (1-(N-(3-(4-piperidyl)propanoyl)-L-isoleucyl)-4-piperidyloxy)acetic acid] | 507 nM | – | – | –
9 | COc1ccc(C[C@H](NC(=O)CCC2CCNCC2)C(=O)N2CCC(OCC(=O)O)CC2)cc1 [Compound (12)] | 60 nM | 450 nM | > 100000 nM | 67000 nM
10 | O=C(O)COC1CCN(C(=O)[C@H](Cc2ccc(O)cc2)NC(=O)CCC2CCNCC2)CC1 [Compound (20), (1-(N-(3-(4-piperidyl)propanoyl)-L-tyrosyl)-4piperidyloxy)acetic acid] | 135 nM | – | – | –
11 | COc1ccc(C[C@H](NC(=O)COC2CCNCC2)C(=O)N2CCC(CCC(=O)O)CC2)cc1 [Compound (37)] | 117 nM | – | – | –
12 | O=C(O)COC1CCN(C(=O)[C@H](Cc2c[nH]c3ccccc23)NC(=O)CCC2CCNCC2)CC1 [Compound (28), (1-(N-(3-(4-piperidyl)propanoyl)-L-tryptophyl)-4-piperidyloxy)acetic acid] | 438 nM | – | – | –
13 | O=C(O)COC1CCN(C(=O)[C@H](Cc2ccc(O)cc2)NC(=O)COC2CCNCC2)CC1 [Compound (19), (1-(N-(4-piperidyloxyacetyl)-L-tyrosyl)-4-piperidyloxy)acetic acid] | 61 nM | – | – | –
14 | O=C(O)CCC1CCN(C(=O)[C@H](Cc2ccc(O)cc2)NC(=O)CCC2CCNCC2)CC1 [Compound (42), 3-(1-(N-(3-(4-piperidyl)propanoyl)-L-tyrosyl)-4-piperidyl)propanoic acid] | 1730 nM | – | – | –
15 | COc1ccc(C[C@H](NC(=O)CCCC2CCNCC2)C(=O)N2CCC(OCC(=O)O)CC2)cc1 [Compound (18), (1-(N-(4-(4-piperidyl)butanoyl)-O-methyl-L-tyrosyl)-4-piperidyloxy)acetic acid] | 680 nM | 63000 nM | > 100000 nM | 7200 nM
16 | O=C(O)COC1CCN(C(=O)[C@H](CO)NC(=O)CCC2CCNCC2)CC1 [Compound (29), (1-(N-(3-(4-piperidyl)propanoyl)-L-seryl)-4-piperidyloxy)acetic acid] | 886 nM | – | – | –
17 | O=C(O)COC1CCN(C(=O)CNC(=O)CCC2CCNCC2)CC1 [Compound (24)] | 2380 nM | – | – | –
18 | O=C(O)COC1CCN(C(=O)[C@H](Cc2ccccc2)NC(=O)CCC2CCNCC2)CC1 [Compound (21), (1-(N-(3-(4-piperidyl)propanoyl)-L-phenylalanyl)-4-piperidyloxy)acetic acid] | 917 nM | – | – | –
